Measured values as given in patent publication US20240391800A1, “HYPERSALINE DESALINATION USING IONIC LIQUIDS AND LOW-TEMPERATURE HEAT” (UNIVERSITY OF NOTRE DAME DU LAC, priority 2021, published 2024).
Several values for one entry are separate records, joined by “and”; a condition that tells them apart may be missing. Identical values can stand only once. Each block holds one compound with its values, some of them ahead of it.

What was measured:
[1] = Solubility of ionic liquid in water (LC-MS of [Tf2N]-); settings: for Solubility in H2O: Table 7 / Example 2; for Solubility in H2O (ppm): IL in water / residual in recovered water
Procedure: Samples with different IL/water ratios are mixed in beaker with stirring speed of 300 rpm for 10 hours, and then a 3-hour sitting period was allowed to guarantee thermodynamic equilibrium of dissolution. Because the ILs tested have higher density than water, the solution in the top layer was extracted as the sample. […] The intensity of a certain ion acquired by the mass spectrometer proportionally reflected the concentration of this kind of ion in the water solution.

Viscosity (rheometer) = format: physicochemical; settings: for Viscosity: TA Instrument Discovery HR-2, temperature not stated; for Viscosity in Pa · s: 293 K
Procedure: Table 3. The viscosity was measured with Discovery Hybrid Rheometer 2.

[2] = Directional solvent extraction (DSE) desalination cycle, moderate / seawater-salinity NaCl feed; settings: seawater salinity feedwater (3.5 wt %, 14,000 ppm Na+)
Procedure: (§1) The mixture was maintained at that temperature for ˜10 minutes for phase separation, expecting the brine to separate from the IL. The IL phase, which contained pure water dissolved within it, was collected, and cooled down to room temperature, precipitating out the fresh water due to lowered solubility in the IL. The separation of these two phases was facilitated by a centrifuge at 3000 rpm. The amount of recovered water was used to calculate the yield, and the water was also characterized for contents of NaCl ions and residual ILs to verify directional solubilities. The NaCl ion concentration was measured using Perkin Elmer Optima 8000 ICP-OES and the IL content is measured using Waters TQD triple mass spectrometer coupled to an Acquity ultrahigh pressure liquid chromatography system.
All Na^+ concentration measurements were performed using Perkin Elmer Optima 8000 ICP-OES. Since all water samples in the experiment were deionized water, it was rational to assume that the molar concentration of Na^+ was equal to that of NaCl. […] A set of calibration curves of conductivity versus Na^+ ion concentration was created prior to the measurements. […] Samples with different IL/water ratios are mixed in beaker with stirring speed of 300 rpm for 10 hours, and then a 3-hour sitting period was allowed to guarantee thermodynamic equilibrium of dissolution. Because the ILs tested have higher density than water, the solution in the top layer was extracted as the sample. […] The intensity of a certain ion acquired by the mass spectrometer proportionally reflected the concentration of this kind of ion in the water solution.
The DS performance in a DSE desalination cycle was evaluated for the assembled ILs, which involved first exposure to water bearing 3.7-5.0 wt % of NaCl (11,000-15,000 ppm of Na^+) followed by thorough mixing at elevated temperatures of 45, 60 or 75° C. […] The amount of residual NaCl and IL in the recovered aqueous phase was then measured using atomic emission spectroscopy and liquid chromatography-mass spectrometry.

[3] = Ionic liquid concentration / solubility in NaCl solution or brine; format: physicochemical
Procedure: Additional experiments were performed to measure IL concentration in the brine with different salinities. In these experiments, the brine (MX, FIG. 1) salinity is 4% or higher depending on the initial mixing ratio of the saline water and IL.

[4] = DSE desalination cycle, high-salinity / saturated / hypersaline NaCl feed
Procedure: as §1

SMILES: CC[n+]1ccn(C)n1 [[1,2,3-emtriz][Tf2N], 1-ethyl-3-methyl-1,2,3-triazolium bistriflimide]
- Solubility in H2O [1]: ~390 ppm
- Viscosity (Viscosity (rheometer)): 0.035 Pa · s
- Ion rejection, seawater concentration [2]: 92.5%
- solubility in 4% NaCl solution [3]: about 41 ppm

SMILES: CC(C)C[C@H](NS(=O)(=O)C(F)(F)F)C(=O)O.CCCCCCCC[P+](CCCC)(CCCC)CCCC [[P4448] I-Leu, Tributyloctylphosphonium trifluoromethanesulfonylleucine]
- Viscosity in Pa · s (Viscosity (rheometer)): 1.017 ± 0.078 Pa · s

SMILES: CCCCCCCC[P+](CCCC)(CCCC)CCCC [[P4448][Bzlm]] [Tributyloctylphosphonium benzo[d]imidazol-1-ide]
- Viscosity in Pa · s (Viscosity (rheometer)): 0.185 ± 0.092 Pa · s

SMILES: CCCCCCCC[P+](CCCC)(CCCC)CCCC [[P4448][Tf2N]] [Tributyloctylphosphonium bis(trifluoromethanesulfonyl)imide]
- Viscosity in Pa · s (Viscosity (rheometer)): 0.433 Pa · s and 0.433 ± 0.099 Pa · s

SMILES: CCCCn1cc[n+](C)c1 [[bmim][Tf2N], 1-Butyl-3-methylimidazolium bis(trifluoromethylsulfonyl)imide]
- Solubility in H2O (ppm) [1]: <90 ppm
- Viscosity in Pa · s (Viscosity (rheometer)): 0.056 ± 0.010 Pa · s

Further lines, with some results ahead:

- Viscosity in Pa · s (Viscosity (rheometer)): 0.081 ± 0.059 Pa · s
SMILES: CCCCCCCCCCCCCC[P+](CCCCCC)(CCCCCC)CCCCCC [[P66614][Tf2N], Trihexyltetradecylphosphonium bis(trifluoromethanesulfonyl)imide]

- Solubility in H2O (ppm) [1]: 130-150 ppm
- Viscosity in Pa · s (Viscosity (rheometer)): 0.033 ± 0.014 Pa · s
- IL concentration in the brine (MX) ([3]; brine with 4% salinity): 4 ppm
- IL solubility in saturated NaCl solution ([3]; saturated NaCl solution): lower than 4 ppm
SMILES: CCn1cc[n+](C)c1 [[emim][Tf2N], 1-Ethyl-3-methylimidazolium bis(trifluoromethylsulfonyl)imide]

- Solubility in H2O [1]: ~270 ppm
- Viscosity (Viscosity (rheometer)): 0.056 Pa · s
- solubility in 4% NaCl solution [3]: about 26 ppm
SMILES: COC[n+]1ccn(C)c1 [[mommim][Tf2N], 1-(methoxymethyl)-3-methyl-1H-imidazol-3-ium bis(trifluoromethylsulfonyl)imide]
- Ion rejection, seawater concentration [2]: 95.2%
- highest salt rejection rate obtained ([4]; NaCl 19.6 wt % hypersaline feed): 95.8%
- Ion rejection, hypersaline ([4]; NaCl 19.6 wt %, Na+ 77,300 ppm feed, average of samples): 89.5%
